In US5994629A, “Positive selection” (priority 1991, dated 1999):

Assays:
maize callus cultures = details: callus cultures of 4 maize lines; 0-20 g/L; three weeks
[1] = test system: explants with the mannose 6-phosphate isomerase gene from E. coli; assay: Regenerated shoots selected by compounds in addition to mannose, M-6-P-isomerase; assay type: cell-based; details: genotype M-6-P-isomerase
[2] = test system: plant material transgenic for the mannose 6-phosphate isomerase gene; assay: Effect of methyl-3-O-glucose on selection of transgenic shoots on mannose; assay type: cell-based; details: mannose 15 g/l; MOG 0 g/l; no sucrose
Source text: The transformed plant material is transgenic for the mannose 6-phosphate isomerase gene. After 21 days the selected shoots are harvested.

[3] = test system: non-transformed potato stem segments; assay: Inhibition by mannose of regeneration of shoots; assay type: cell-based, Solanum tuberosum
Procedure: This substrate is referred to hereafter as "selection/regeneration substrate". Regenerated plants are produced as described above, except that the shoot segments are not co-cultured with bacteria and the washing procedure consequential thereon is omitted. […] In general, mannose cannot be used as a carbohydrate source in most plant species. When mannose is added to plants it is metabolized and mannose 6-phosphate accumulates. Mannose 6-phosphate can be converted to fructose 6-phosphate by mannose 6-phosphate isomerase, the amount converted being dependent upon the activity of the isomerase. Such fructose 6-phosphate may be utilized by plants, but in principal high levels of mannose (whether or not an alternative carbohydrate source is available) are toxic to plants.

Wild type explants = assay: Regenerated shoots selected by compounds in addition to mannose, wild type; assay type: cell-based; details: genotype Wild type
immature maize embryos = assay: Mannose selection of bombarded immature maize embryos; assay type: cell-based; details: selection on 10 g/L D-mannose for 3 weeks; 420 embryos
maize protoplasts = assay: Mannose selection in maize protoplast PEG-mediated transformation; assay type: cell-based; details: 2% mannose for one to two weeks; 47/17 million protoplasts
[4] = test system: hypocotyl explants of oilseed rape; assay: Transgenic callus from oilseed rape, second section of Table 19; assay type: cell-based
Procedure: (§1) Experiments were performed as described in Example 11, although with certain modifications. The plant species used were the very recalcitrant breeding lines "V486" of winter oil seed rape and "S487" of summer oilseed rape. Seeds were sterilized and germinated as described in Example 16. Hypocotyls were used as explants and were inoculated and co-cultured as described in Example 11. After co-cultivation the explants were transferred to MSO substrate containing 0.1 mg/l naphthylacetic acid, 0.01 mg/l gibberellic acid (GA3), 500 mg/l carbenicillin, 50 mg/l kanamycin sulphate and 6.0 g/l agarose. The substrate contained in addition either 1 mg/l BA or 3.75, 7.5 or 15.0 mg/l BA3GN sodium salt. The pH was adjusted to 5.8. The Agrobacterium used contained in its T-DNA a GUS gene and a neomycinphosphotransferase II gene driven by 35S promoters. GUS assays were performed after 8 weeks and callus showing an intense blue staining in most of the callus cells was registered as being GUS.

[5] = test system: hypocotyl explants of winter oil seed rape V486; assay: Transgenic callus from oilseed rape, winter type V486; assay type: cell-based; details: 50 mg/l kanamycin sulphate
Procedure: as §1

[6] = test system: leaf discs of tobacco without (GUS-) introduced β-glucuronidase genes; assay type: cell-based, Nicotiana tabacum 'Wisconsin 38'; details: test compounds at several concentrations up to 250 μM in MSO
[7] = test system: leaf discs of tobacco with (GUS+) introduced β-glucuronidase genes; assay type: cell-based, Nicotiana tabacum 'Wisconsin 38'; details: test compounds at several concentrations up to 250 μM in MSO
[8] = test system: sugar beet cotyledon explants; assay: Transformation of sugar beet, positive and negative selection; assay type: cell-based; details: 400 mg/l kanamycin sulphate + 1 mg/l BAP (100 explants) or + 15 mg/l BA3GN (177 explants)
Source text: Seeds were germinated for 4 days in darkness on a substrate containing 0.7 g/l of agarose and 2 g/l of sucrose. The seedlings were then transferred to a Nunc container containing 1/2×MSO substrate and cultured for 3 days in the light. The cotyledons were removed from the seedlings, and the cotyledon explants were then brushed on the petiole with a small brush containing an Agrobacterium suspension, the Agrobacterium containing 35S-NPTII and 35S-GUS (OD 660=0.1). The cotelydons were then co-cultivatedfor 4 days on a substrate containing 1/10 MSO substrate and 200 μM acetosyringone. […] The regenerated shoots were then transferred to containers containing the same substrate. After 52 days on this substrate all the shoots were transferred to MSO substrate supplemented with 800 mg/l carbenicillin, 25 mg/l vancomycin and 0.1 mg/l BA. After 14 days GUS assays as described in Example 3 were performed on the selected plant material.

[9] = test system: tobacco leaf disc containing an introduced β-glucuronidase gene; assay: Shoot regeneration with sterol glucuronides on tridemorph substrate; assay type: cell-based; details: sitosteryl glucuronide 12.5 mg/l and/or cholesteryl glucuronide 50 mg/l; tridemorph 0.1 mM and BA3GN sodium salt (5 mM); 30 days
[10] = molecular target: T1, GUS activity in plant tissue (Escherichia coli, UniProt P05804); assay: Histological GUS reaction (X-gluc) in plant species with saccharo 1,4-lactone; assay type: cell-based; details: saccharo 1,4-lactone 10 mM, pH 3-8, transgenic (1), GUS gene from E. coli
T1 construct: from tissue; host or cells: leaves of a number of plant species
T1 sequence (P05804 whole entry): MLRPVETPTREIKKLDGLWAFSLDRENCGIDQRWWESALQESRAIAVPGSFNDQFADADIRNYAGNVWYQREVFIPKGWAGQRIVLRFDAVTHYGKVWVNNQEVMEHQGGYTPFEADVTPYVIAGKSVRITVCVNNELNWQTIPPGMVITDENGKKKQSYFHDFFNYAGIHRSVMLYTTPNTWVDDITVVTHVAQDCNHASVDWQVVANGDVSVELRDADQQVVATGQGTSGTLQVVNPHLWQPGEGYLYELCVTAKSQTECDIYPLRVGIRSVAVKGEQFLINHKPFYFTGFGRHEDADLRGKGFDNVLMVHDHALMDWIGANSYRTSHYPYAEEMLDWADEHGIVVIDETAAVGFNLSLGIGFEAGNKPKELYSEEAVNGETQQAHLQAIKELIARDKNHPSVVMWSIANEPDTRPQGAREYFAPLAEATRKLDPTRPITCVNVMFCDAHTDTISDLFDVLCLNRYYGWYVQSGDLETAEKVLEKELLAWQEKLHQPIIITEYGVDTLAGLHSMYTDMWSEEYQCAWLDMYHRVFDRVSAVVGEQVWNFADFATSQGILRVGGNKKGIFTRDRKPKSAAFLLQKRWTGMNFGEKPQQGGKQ

[11] = test system: GUS activity in plant tissue; assay: as above; assay type: cell-based; details: saccharo 1,4-lactone 10 mM, pH 3-8
[12] = molecular target: β-glucuronidase from E. coli (Escherichia coli, UniProt P05804); assay: Hydrolysis by β-glucuronidase (GUS), HPLC/TLC; assay type: biochemical; details: for Hydrolysis by β-glucuronidase (GUS), result in words: 50 mM sodium phosphate buffer pH 7.0, 37° C., HPLC/TLC
β-glucuronidase from E. coli, sequence (P05804 whole entry, looked up): as the sequence (P05804 whole entry) above
Procedure: […] […] This confirms the identity of the product as a conjugate of BA and β-D-glucuronic acid.
[…] The presence of hydrolysis products is then determined using HPLC and TLC.

O=C[C@@H](O)[C@@H](O)[C@H](O)[C@H](O)CO [mannose, D-mannose]
utilization as carbohydrate source, in words (maize callus cultures): cannot be utilized as the sole carbohydrate source
Number of regenerated shoots per explant [1]: 1.1
GUS+ shoots/explant [2]: 0
GUS+ shoots/sel. shoots (%) [2]: 0%
Regenerated shoots/explant (%) ([3]; sucrose 0 g/l, mannose 5 g/l, up to 40th day): 0%
Regenerated shoots/explant (%) ([3]; sucrose 0 g/l, mannose 10 g/l): 0%
Regenerated shoots/explant (%) ([3]; sucrose 0 g/l, mannose 20 g/l): 0%
Regenerated shoots/explant (%) ([3]; sucrose 10 g/l, mannose 5 g/l): 3%
Regenerated shoots/explant (%) ([3]; sucrose 10 g/l, mannose 10 g/l): 0%
Regenerated shoots/explant (%) ([3]; sucrose 10 g/l, mannose 20 g/l): 0%
Regenerated shoots/explant (%) ([3]; sucrose 20 g/l, mannose 5 g/l): 0%
Regenerated shoots/explant (%) ([3]; sucrose 20 g/l, mannose 10 g/l): 0%
Regenerated shoots/explant (%) ([3]; sucrose 20 g/l, mannose 20 g/l): 0%
Number of regenerated shoots per explant (Wild type explants): 0
% transformation (immature maize embryos): 2.9%
stable transformation frequency (maize protoplasts): 0.00028%

N[C@@H]1C(O)O[C@H](CO)[C@@H](O)[C@@H]1O (stereo partly drawn) [D-mannosamine]
Number of regenerated shoots per explant [1]: 0.8
Number of regenerated shoots per explant (Wild type explants): 0

c1ccc(CNc2ncnc3nc[nH]c23)cc1 [BA, N^6 -benzyladenine]
Explants with callus ([4]; BA 1 mg/l): 0%
GUS+ callus per callus ([4]; BA 1 mg/l): 0%
GUS+ callus per explant ([4]; BA 1 mg/l): 0%
Explants with callus ([5]; BA 1 mg/l): 0%
GUS+ callus per callus ([5]; BA 1 mg/l): 0%
GUS+ callus per explant ([5]; BA 1 mg/l): 0%
Shoot formation, GUS- [6]: + ("+" means shoot formation at concentrations below 250 μM)
Shoot formation, GUS+ [7]: + ("+" means shoot formation at concentrations below 250 μM)
GUS+ Shoots [8]: 0
GUS+ shoots (%) [8]: 0%

CC(C)CCC[C@@H](C)[C@H]1CC[C@H]2[C@@H]3CC=C4C[C@@H](O[C@@H]5O[C@H](C(=O)O)[C@@H](O)[C@H](O)[C@H]5O)CC[C@]4(C)[C@H]3CC[C@]12C [Choesteryl-β-D-glucuronide, cholesteryl-β-D-glucuronide]
Shoots per leaf disc [9]: 0.3

O=C(O)[C@@H](O)[C@H]1OC(=O)[C@H](O)[C@H]1O [Saccharo 1,4-lactone]
Histological GUS reaction ([10]; Sugar beet): (+)
Histological GUS reaction ([10]; Tobacco): 0
Histological GUS reaction ([11]; Oilseed rape): 0
Histological GUS reaction ([11]; Oxalis, stem or petiole): 0
Histological GUS reaction ([11]; Pea, stem or petiole): 0
Histological GUS reaction ([11]; Rhubarb, stem or petiole): 0
Histological GUS reaction ([11]; Sitka spruce, embryogenic callus): 0
Histological GUS reaction ([11]; Sugar beet, transgenic (2), NPT only): 0
Histological GUS reaction ([11]; Sugar beet, wild type): 0
Histological GUS reaction ([11]; Tobacco): 0
Histological GUS reaction ([11]; Tobacco, transgenic (2), NPT only): 0
Histological GUS reaction ([11]; Wheat, albino): 0
stability at the pH of the substrate (Chemical stability; equilibrium with saccharic acid): not a stable compound

CC[C@H](CC[C@@H](C)[C@H]1CC[C@H]2[C@@H]3CC=C4C[C@@H](O[C@@H]5O[C@H](C(=O)O)[C@@H](O)[C@H](O)[C@H]5O)CC[C@]4(C)[C@H]3CC[C@]12C)C(C)C [Sitosteryl-β-D-glucuronide, β-sitosteryl-β-D-glucuronidide]
Shoots per leaf disc [9]: 2.8

O=C([O-])[C@H]1O[C@@H](n2cnc(NCc3ccccc3)c3ncnc2-3)[C@H](O)[C@@H](O)[C@@H]1O.[Na+]
GUS+ callus per callus ([4]; BA3GN 3.75 mg/l): 33.3%
GUS+ callus per explant ([4]; BA3GN 3.75 mg/l): 1.7%
Explants with callus ([4]; BA3GN 3.75 mg/l, 50 mg/l kanamycin sulphate): 5.2%
Explants with callus ([4]; BA3GN 7.5 mg/l): 9.2%
GUS+ callus per callus ([4]; BA3GN 7.5 mg/l): 25.0%
GUS+ callus per explant ([4]; BA3GN 7.5 mg/l): 2.3%
Explants with callus ([4]; BA3GN 15.00 mg/l): 6.3%
GUS+ callus per callus ([4]; BA3GN 15.00 mg/l): 14.2%
GUS+ callus per explant ([4]; BA3GN 15.00 mg/l): 0.9%
GUS+ callus per callus ([5]; BA3GN 3.75 mg/l): 7.1%
GUS+ callus per explant ([5]; BA3GN 3.75 mg/l): 1.4%
Explants with callus ([5]; BA3GN 3.75 mg/l, 8 weeks): 19.0%
Explants with callus ([5]; BA3GN 7.5 mg/l): 23.0%
GUS+ callus per callus ([5]; BA3GN 7.5 mg/l): 5.9%
GUS+ callus per explant ([5]; BA3GN 7.5 mg/l): 1.4%
Explants with callus ([5]; BA3GN 15.00 mg/l): 30.6%
GUS+ callus per callus ([5]; BA3GN 15.00 mg/l): 7.5%
GUS+ callus per explant ([5]; BA3GN 15.00 mg/l): 2.3%
Shoot formation, GUS- [6]: + ("+" means shoot formation at concentrations below 250 μM)
Shoot formation, GUS+ [7]: + ("+" means shoot formation at concentrations below 250 μM)
Hydrolysis by β-glucuronidase (GUS), result in words [12]: virtually complete removal
removal of the glucuronide by GUS ([12]; 2500 Fishman units, 12 hours, 37° C., HPLC and TLC): > 99%
GUS+ Shoots [8]: 4
GUS+ shoots (%) [8]: 2.3%

O=P(O)(O)OC[C@H]1OC(O)[C@@H](O)[C@@H](O)[C@@H]1O (stereo partly drawn) [D-mannose-6-phosphate]
Number of regenerated shoots per explant [1]: 0.7
Number of regenerated shoots per explant (Wild type explants): 0

O=C([O-])[C@H]1O[C@@H](n2cnc3c(NCc4ccccc4)ncnc32)[C@H](O)[C@@H](O)[C@@H]1O.[Na+] [BA9GN sodium salt, 9-β-D-glucopyranuronosyl-6-benzylaminopurine, sodium salt]
Shoot formation, GUS- [6]: - ("-" means no shoot formation at concentrations below 250 μM)
Shoot formation, GUS+ [7]: - ("-" means no shoot formation at concentrations below 250 μM)
Hydrolysis by β-glucuronidase (GUS), result in words [12]: no detectable production of BA
production of BA after incubation with β-glucuronidase ([12]; 18 hours at 37° C.): < 1%
acid hydrolysis (Chemical stability; 1 mg/ml, 1M hydrochloric acid at 100° C. overnight, TLC): acid-labile
